Data reported in the NIST ThermoML archive (doi:10.1021/je400408w).

Assay: molar heat capacity at constant pressure; xn = mol fraction of the nth substance listed
Details: 100 kPa, Liquid

O=C1CCCN1 [2-pyrrolidinone] + Cc1cccc(Cl)c1
x1 = 1
Details	molar heat capacity at constant pressure [J/K/mol]
293.15 K	168.36
298.15 K	169.55
303.15 K	171.18

Cc1cccc(Cl)c1 [3-chlorotoluene] + CN1CCCC1=O
molar heat capacity at constant pressure [J/K/mol]
Details	293.15 K	298.15 K	303.15 K
x2 = 0	175.21	176.46	177.67
x2 = 0.0566	176.9	178.51	180.44
x2 = 0.0976	178.07	179.91	182.2
x2 = 0.1345	179.19	181.07	183.53
x2 = 0.1724	180.12	182.1	184.76
x2 = 0.2187	181.31	183.26	186.04
x2 = 0.2565	182.12	184.06	186.9
x2 = 0.2934	182.85	184.82	187.61
x2 = 0.3342	183.56	185.46	188.27
x2 = 0.3745	184.2	185.98	188.79
x2 = 0.4187	184.71	186.4	189.2
x2 = 0.4568	184.96	186.73	189.36
x2 = 0.4986	185.09	186.84	189.47
x2 = 0.5386	185.06	186.75	189.31
x2 = 0.5783	184.78	186.58	189.08
x2 = 0.6112	184.42	186.25	188.68
x2 = 0.6542	183.69	185.54	187.92
x2 = 0.6923	182.87	184.66	187.08
x2 = 0.7328	181.83	183.55	185.83
x2 = 0.7786	179.95	181.8	183.95
x2 = 0.8189	178.11	180	182.01
x2 = 0.8324	177.43	179.29	181.17
x2 = 0.8621	175.85	177.56	179.36
x2 = 0.9078	172.92	174.43	175.98
x2 = 0.9427	170.28	171.62	172.92

Cc1ccccc1Cl [2-chlorotoluene] + O=C1CCCN1
molar heat capacity at constant pressure [J/K/mol]
Details	293.15 K	298.15 K	303.15 K
x2 = 0	176.43	178.21	180.01
x2 = 0.0426	177.32	179.22	181.34
x2 = 0.0815	178.2	180.1	182.4
x2 = 0.1243	179.12	181.15	183.61
x2 = 0.1654	180	182.08	184.67
x2 = 0.2067	180.7	182.94	185.64
x2 = 0.2432	181.17	183.62	186.37
x2 = 0.2851	181.73	184.27	186.97
x2 = 0.3215	182.2	184.63	187.49
x2 = 0.3645	182.46	184.96	187.88
x2 = 0.4088	182.43	185.2	188.02
x2 = 0.4426	182.43	185.07	187.93
x2 = 0.4854	182.08	184.93	187.72
x2 = 0.5231	181.74	184.55	187.37
x2 = 0.5612	181.22	183.98	186.88
x2 = 0.5987	180.54	183.29	186.2
x2 = 0.6316	179.75	182.48	185.46
x2 = 0.6724	178.85	181.51	184.4
x2 = 0.7143	177.56	180.26	183.11
x2 = 0.7543	176.48	178.86	181.78
x2 = 0.796	175.15	177.45	180.2
x2 = 0.8342	173.85	176.13	178.66
x2 = 0.8724	172.53	174.47	177.02
x2 = 0.9088	171.32	173.04	175.4
x2 = 0.9426	170.19	171.72	173.87

O=C1CCCN1 [2-pyrrolidinone] + Cc1ccc(Cl)cc1
x1 = 1
Details	molar heat capacity at constant pressure [J/K/mol]
293.15 K	168.36
298.15 K	169.55
303.15 K	171.18

CN1CCCC1=O [N-methylpyrrolidone] + Cc1ccc(Cl)cc1
x1 = 1
Details	molar heat capacity at constant pressure [J/K/mol]
293.15 K	165.44
298.15 K	166.22
303.15 K	166.92

O=C1CCCN1 [2-pyrrolidinone] + Cc1ccccc1Cl
x1 = 1
Details	molar heat capacity at constant pressure [J/K/mol]
293.15 K	168.36
298.15 K	169.55
303.15 K	171.18

Cc1ccc(Cl)cc1 [4-chlorotoluene] + CN1CCCC1=O
molar heat capacity at constant pressure [J/K/mol]
Details	293.15 K	298.15 K	303.15 K
x2 = 0	175.66	177.95	180.37
x2 = 0.0671	176.7	178.71	180.9
x2 = 0.1128	177.44	179.35	181.36
x2 = 0.1487	178.03	179.8	181.81
x2 = 0.1876	178.67	180.38	182.29
x2 = 0.2219	179.21	180.88	182.72
x2 = 0.2615	179.85	181.44	183.16
x2 = 0.2987	180.33	181.87	183.61
x2 = 0.3328	180.77	182.28	183.94
x2 = 0.3728	181.29	182.72	184.22
x2 = 0.4137	181.62	183.02	184.44
x2 = 0.4512	181.89	183.22	184.54
x2 = 0.4928	182.07	183.31	184.53
x2 = 0.5316	182.09	183.2	184.46
x2 = 0.5773	181.94	182.93	184.08
x2 = 0.6154	181.61	182.53	183.54
x2 = 0.6542	181.16	182.01	182.89
x2 = 0.6927	180.46	181.23	182.04
x2 = 0.7326	179.54	180.21	180.88
x2 = 0.7732	178.32	178.9	179.49
x2 = 0.8142	176.8	177.33	177.84
x2 = 0.8315	176	176.54	177.12
x2 = 0.8715	174.08	174.58	175.13
x2 = 0.9153	171.57	172.16	172.62
x2 = 0.9534	169.04	169.62	170.26

CN1CCCC1=O [N-methylpyrrolidone] + Cc1cccc(Cl)c1
x1 = 1
Details	molar heat capacity at constant pressure [J/K/mol]
293.15 K	165.44
298.15 K	166.22
303.15 K	166.92

Cc1cccc(Cl)c1 [3-chlorotoluene] + O=C1CCCN1
molar heat capacity at constant pressure [J/K/mol]
Details	293.15 K	298.15 K	303.15 K
x2 = 0	175.21	176.46	177.67
x2 = 0.0398	175.59	176.89	178.18
x2 = 0.0798	176.05	177.3	178.65
x2 = 0.1089	176.37	177.6	179.06
x2 = 0.1443	176.74	178.08	179.55
x2 = 0.1853	177.1	178.48	179.99
x2 = 0.2234	177.49	178.84	180.42
x2 = 0.2613	177.74	179.25	180.77
x2 = 0.3095	178.12	179.52	181.15
x2 = 0.3452	178.21	179.69	181.37
x2 = 0.3865	178.3	179.9	181.5
x2 = 0.4432	178.35	179.92	181.58
x2 = 0.4836	178.22	179.73	181.43
x2 = 0.5213	177.98	179.53	181.21
x2 = 0.5643	177.56	179.17	180.87
x2 = 0.6074	177.17	178.68	180.45
x2 = 0.6408	176.64	178.24	179.95
x2 = 0.6853	175.94	177.56	179.23
x2 = 0.7214	175.28	176.81	178.55
x2 = 0.7654	174.4	175.89	177.62
x2 = 0.8069	173.44	174.91	176.65
x2 = 0.8453	172.56	173.94	175.71
x2 = 0.8812	171.61	172.99	174.68
x2 = 0.9203	170.57	171.93	173.57
x2 = 0.9564	169.6	170.88	172.55

CN1CCCC1=O [N-methylpyrrolidone] + Cc1ccccc1Cl
x1 = 1
Details	molar heat capacity at constant pressure [J/K/mol]
293.15 K	165.44
298.15 K	166.22
303.15 K	166.92
